# Test results: patent US20180339963A1, “ANTICONVULSANT CARBAMATE DERIVATIVES” (Yissum Research Development Company of the Hebrew …, priority 2017, published 2018)
# Where two headings read alike, the source gives them in different places.
# What was measured:
# [1] = target: T1, hCA VII (Homo sapiens, UniProt P43166); assay: Stopped flow CO2 hydrase assay, hCA VII; assay type: biochemical; conditions: mean from 3 assays, read-out: K1, hCA VII
# T1 construct: made in house
# Description: (§1) An Applied Photophysics stopped-flow instrument has been used for assaying the CA catalysed CO2 hydration activity. Phenol red (at a concentration of 0.2 mM) has been used as indicator, working at the absorbance maximum of 557 nm, with 20 mM Hepes (pH 7.5) as buffer, and 20 mM Na2SO4 (for maintaining constant the ionic strength), following the initial rates of the CA-catalyzed CO2 hydration reaction for a period of 10-100 s. The CO2 concentrations ranged from 1.7 to 17 mM for the determination of the kinetic parameters and inhibition constants. […] The uncatalyzed rates were determined in the same manner and subtracted from the total observed rates. Stock solutions of inhibitor (0.1 mM) were prepared in distilled-deionized water and dilutions up to 0.01 nM were done thereafter with the assay buffer. […] The inhibition constants were obtained by non-linear least-squares methods using PRISM 3 and the Cheng-Prusoff equation, as reported earlier and represent the mean from at least three different determinations. All CA isofoms were recombinant ones obtained in-house.
# [2] = target: T2, hCA II (Homo sapiens, UniProt P00918); assay: Stopped flow CO2 hydrase assay, hCA II; assay type: biochemical; conditions: mean from 3 assays, read-out: K1, hCA II
# T2 construct: made in house
# Description: as §1
# [3] = system: 6 Hz psychomotor seizure; assay: 6 Hz psychomotor seizure test in mice; conditions: Mus musculus, ip, read-out: 6 Hz, number of mice protected/number of mice tested
# [4] = system: mice; assay: Neurotoxicity (minimal motor impairment, rotarod) in mice; conditions: mice i.p.
# [5] = system: maximal electroshock seizure (MES); assay: Maximal electroshock seizure (MES) test in mice; conditions: Mus musculus, ip; for responders at 30 mg/kg / responders at 100 mg/kg / responders at 300 mg/kg: read-out: MES, number of mice protected/number of mice tested
# [6] = target: T3, hCA I (Homo sapiens, UniProt P00915); assay: Stopped flow CO2 hydrase assay, hCA I; assay type: biochemical; conditions: mean from 3 assays, read-out: K1, hCAI
# T3 construct: made in house
# Description: as §1
# [7] = target: T4, hCA IV (Homo sapiens, UniProt P22748); assay: Stopped flow CO2 hydrase assay, hCA IV; assay type: biochemical; conditions: mean from 3 assays; for Ki: read-out: K1, hCA IV
# T4 construct: made in house
# Description: as §1
# [8] = system: maximal electroshock seizure (MES); assay: Maximal electroshock seizure (MES) test in rats; conditions: Rattus norvegicus, po, read-out: MES-ED50, rats, p.o.
# T3 sequence (P00915 whole entry): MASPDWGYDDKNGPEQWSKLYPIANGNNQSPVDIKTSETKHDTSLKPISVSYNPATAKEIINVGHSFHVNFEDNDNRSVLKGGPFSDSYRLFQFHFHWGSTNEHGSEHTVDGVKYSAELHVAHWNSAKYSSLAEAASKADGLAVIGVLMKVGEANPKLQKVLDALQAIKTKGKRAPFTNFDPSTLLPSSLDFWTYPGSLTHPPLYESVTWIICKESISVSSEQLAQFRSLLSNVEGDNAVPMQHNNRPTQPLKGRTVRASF
# T1 sequence (P43166 whole entry): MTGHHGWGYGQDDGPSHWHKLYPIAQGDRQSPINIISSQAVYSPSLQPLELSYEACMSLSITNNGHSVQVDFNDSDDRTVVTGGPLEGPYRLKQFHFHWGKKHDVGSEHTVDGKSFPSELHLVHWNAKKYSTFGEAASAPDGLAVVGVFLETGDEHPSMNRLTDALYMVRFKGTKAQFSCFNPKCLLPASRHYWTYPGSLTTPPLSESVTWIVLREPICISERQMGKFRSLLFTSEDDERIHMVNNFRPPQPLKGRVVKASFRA
# T4 sequence (P22748 19-284): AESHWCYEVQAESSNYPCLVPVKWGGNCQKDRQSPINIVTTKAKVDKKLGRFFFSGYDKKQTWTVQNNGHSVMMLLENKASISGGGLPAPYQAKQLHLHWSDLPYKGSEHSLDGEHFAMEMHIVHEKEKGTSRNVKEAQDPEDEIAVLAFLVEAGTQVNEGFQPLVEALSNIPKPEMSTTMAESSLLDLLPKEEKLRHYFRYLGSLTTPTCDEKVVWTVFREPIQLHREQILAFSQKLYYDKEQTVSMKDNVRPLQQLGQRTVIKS
SMILES,Ki [1] [nM],Ki [2] [nM],responders at 30 mg/kg ([3]; 0.5 h) [%],responders at 100 mg/kg ([3]; 0.5 h) [%],responders at 300 mg/kg ([3]; 0.5 h) [%],responders at 30 mg/kg ([3]; 2 h) [%],responders at 100 mg/kg ([3]; 2 h) [%],responders at 300 mg/kg ([3]; 2 h) [%],"Tox (motor impairment or sedation), number of animals affected/number of animals tested ([4]; 30 mg/kg, 0.5 h)","Tox (motor impairment or sedation), number of animals affected/number of animals tested ([4]; 30 mg/kg, 2.0 h)","Tox (motor impairment or sedation), number of animals affected/number of animals tested ([4]; 100 mg/kg, 0.5 h)","Tox (motor impairment or sedation), number of animals affected/number of animals tested ([4]; 100 mg/kg, 2.0 h)","Tox (motor impairment or sedation), number of animals affected/number of animals tested ([4]; 300 mg/kg, 0.5 h)","Tox (motor impairment or sedation), number of animals affected/number of animals tested ([4]; 300 mg/kg, 2.0 h)",responders at 30 mg/kg ([5]; 0.5 h) [%],responders at 100 mg/kg ([5]; 0.5 h) [%],responders at 300 mg/kg ([5]; 0.5 h) [%],responders at 30 mg/kg ([5]; 2 h) [%],responders at 100 mg/kg ([5]; 2 h) [%],melting point [°C],also measured
"CCCCC(CC)COC(=O)Nc1ccc(S(N)(=O)=O)cc1 (stereo not shown) [Compound 2, 2-ethylhexyl (4-sulfamoylphenyl)carbamate]",> 10000,8.7,0,75,50,0,0,25,0/8,0/8,0/8,0/8,0/8,0/8,0,25,25,0,0,192 to 195,responders at 300 mg/kg ([5]; 2 h): 25%; Ki [6]: 421 nM; Ki [7]: > 10000 nM
"CCCC(CCC)COC(=O)Nc1ccc(S(N)(=O)=O)cc1 [Compound 3, 2-propylpentyl (4-sulfamoylphenyl)carbamate]",> 10000,19.6,0,0,25,0,0,0,0/8,0/8,0/8,0/8,0/8,0/8,0,0,0,0,0,176 to 177,responders at 300 mg/kg ([5]; 2 h): 0%; Ki [6]: 485 nM; Ki [7]: > 10000 nM
"CC(C)(C)CCOC(=O)Nc1ccc(S(N)(=O)=O)cc1 [Compound 4, 3,3-dimethylbutyl (4-sulfamoylphenyl)carbamate]",44.4,4.5,0,0,0,0,0,0,0/8,0/8,0/8,0/8,0/8,0/8,0,0,25,0,0,170 to 173,responders at 300 mg/kg ([5]; 2 h): 25%; Ki [6]: 59.5 nM; Ki [7]: 1840 nM
"NS(=O)(=O)c1ccc(NC(=O)OCCc2ccccc2)cc1 [Compound 5, phenethyl (4-sulfamoylphenyl)carbamate]",24.5,0.6,0,0,0,0,0,0,0/8,0/8,0/8,0/8,0/8,0/8,0,0,0,25,25,212 to 213,"responders at 300 mg/kg ([5]; 2 h): 50%; Ki [6]: 5.9 nM; K1, hCA IV [7]: medium potency inhibitors; Ki [7]: 303 nM"
"CCC(CC)COC(=O)Nc1ccc(S(N)(=O)=O)cc1 [Compound 6, 2-ethylbutyl (4-sulfamoylphenyl)carbamate]",52,5.2,0,25,25,0,0,25,0/8,0/8,0/8,0/8,0/8,0/8,0,0,0,0,0,162 to 165,responders at 300 mg/kg ([5]; 2 h): 0%; Ki [6]: 169 nM; Ki [7]: 1690 nM
"CC(COC(=O)Nc1ccc(S(N)(=O)=O)cc1)CC(C)(C)C (stereo not shown) [Compound 7, 2,4,4-trimethylpentyl (4-sulfamoylphenyl)carbamate]",712,5,25,25,100,0,50,75,0/8,0/8,0/8,0/8,0/8,0/8,0,0,0,0,25,199 to 201,responders at 300 mg/kg ([5]; 2 h): 50%; Ki [6]: 83.5 nM; Ki [7]: 2760 nM
"CC(C)C(OC(=O)Nc1ccc(S(N)(=O)=O)cc1)C(C)C [Compound 8, 2,4-dimethylpentan-3-yl (4-sulfamoylphenyl)carbamate]",35.4,3.7,0,0,50,0,0,25,0/8,0/8,0/8,0/8,1/8,0/8,0,0,25,50,100,193 to 194,"responders at 300 mg/kg ([5]; 2 h): 100%; Ki [6]: 21 nM; K1, hCA IV [7]: medium potency inhibitors; Ki [7]: 452 nM"
"CCC(C)OC(=O)Nc1ccc(S(N)(=O)=O)cc1 (stereo not shown) [Compound 11, sec-butyl(4-sulfamoylphenyl)carbamate]",,,,,,,,,,,,,,,,,,,,190 to 191,"ED50 ([5]; read-out: MES-ED50, mice, i.p.): 75 mg/kg; ED50 [8]: 25 mg/kg"
